{"source": "ChEMBL document CHEMBL1799917", "about": "“Isolation, sequencing, and structure-activity relationships of cyclotides” (J Nat Prod, 2010)", "key": {"[1]": {"test_system": "Helicoverpa armigera", "experiment": "Insecticidal activity against Helicoverpa armigera assessed as growth inhibition", "format": "functional, organism-based"}, "[2]": {"test_system": "Helicoverpa punctigera", "experiment": "Insecticidal activity against Helicoverpa punctigera assessed as inhibition of development of larvae at 0.825 umol/g after 16 days", "format": "functional, organism-based"}, "[3]": {"test_system": "CEM-SS (Homo sapiens)", "experiment": "Cytotoxicity against human CEM-SS cells"}, "[4]": {"test_system": "Human immunodeficiency virus 1", "experiment": "Antiviral activity against HIV1 infected in human CEM-SS cells assessed as protection against virus-induced cytopathic effect by XTT method", "format": "functional, organism-based", "settings": "Human immunodeficiency virus 1, CEM-SS"}, "[5]": {"experiment": "Hemolytic activity in human type A RBC assessed as hemolysis after 1 hr by microtitre plate", "format": "ADME, cell-based", "settings": "Erythrocyte"}, "[6]": {"experiment": "Hemolytic activity in human type A RBC assessed as concentration required to cause 75% hemolysis after 1 hr by microtitre plate", "format": "ADME, cell-based", "settings": "erythrocyte"}}, "note": "The source made the active and inactive calls. The calls are words filed in the database; no cut-off is given here. Where a SMILES comes first, the peptide text is derived from it. Bridges are numbered along the chain shown (N, C = ends)."}
{"smiles": "CC[C@H](C)[C@@H]1NC(=O)[C@@H]2CCCN2C(=O)[C@H](Cc2c[nH]c3ccccc23)NC(=O)[C@H]([C@@H](C)O)NC(=O)[C@@H]2CSSC[C@@H]3NC(=O)[C@](C)([C@@H](C)O)NC(=O)[C@H](CCC(=O)O)NC(=O)CNC(=O)[C@@H]4CSSC[C@H](NC(=O)CNC(=O)[C@@H]5CCCN5C(=O)[C@H]([C@@H](C)O)NC(=O)[C@H](CC(N)=O)NC(=O)[C@H](CSSC[C@H](NC1=O)C(=O)N[C@@H]([C@@H](C)O)C(=O)N[C@@H](CCCNC(=N)N)C(=O)N[C@@H](CC(=O)O)C(=O)NCC(=O)N[C@@H](CC(C)C)C(=O)N1CCC[C@H]1C(=O)N[C@@H](C(C)C)C(=O)N4)NC(=O)[C@H]([C@@H](C)O)NC(=O)CNC(=O)CNC(=O)[C@H](Cc1ccccc1)NC3=O)C(=O)N[C@@H](CO)C(=O)N2", "values": [{"measurement": "Activity", "setting": "[1]", "value": "Active"}]}
{"smiles": "CC(C)C[C@@H]1NC(=O)CNC(=O)[C@H](CC(N)=O)NC(=O)[C@H](CCCNC(=N)N)NC(=O)[C@H]([C@@H](C)O)NC(=O)[C@H](CS)NC(=O)[C@H](C(C)C)NC(=O)[C@@H]2CCCN2C(=O)[C@H](CCC(=O)O)NC(=O)[C@H](CO)NC(=O)[C@H](CS)NC(=O)[C@H]([C@@H](C)O)NC(=O)[C@H](CS)NC(=O)CNC(=O)[C@@H]2CCCN2C(=O)[C@H]([C@@H](C)O)NC(=O)[C@H](CC(N)=O)NC(=O)[C@H](CS)NC(=O)[C@H]([C@@H](C)O)NC(=O)CNC(=O)CNC(=O)[C@H](C(C)C)NC(=O)[C@H](CS)NC(=O)[C@H]([C@@H](C)O)NC(=O)[C@H](CCC(=O)O)NC(=O)CNC(=O)[C@H](CS)NC(=O)[C@H](C(C)C)NC(=O)[C@@H]2CCCN2C1=O", "note": "[KALATA B1]", "values": [{"measurement": "Activity", "setting": "[2]", "value": "Active"}]}
{"smiles": "CC(C)C[C@@H]1NC(=O)[C@H](CC(C)C)NC(=O)[C@@H]2CSSC[C@@H]3NC(=O)[C@H]([C@@H](C)O)NC(=O)[C@@H]4CSSC[C@H](NC(=O)[C@H](CC(N)=O)NC(=O)[C@H](CC(C)C)NC(=O)[C@H](C(C)C)NC(=O)[C@H](CO)NC(=O)CNC(=O)[C@H](CC(=O)O)NC(=O)[C@H](CCCCN)NC(=O)[C@H]([C@@H](C)O)NC(=O)[C@H](CSSC[C@H](NC(=O)[C@H]([C@@H](C)O)NC(=O)CNC1=O)C(=O)N[C@@H](Cc1ccc(O)cc1)C(=O)N[C@@H]([C@@H](C)O)C(=O)N[C@@H]([C@@H](C)O)C(=O)NCC(=O)N4)NC(=O)[C@H](C(C)C)NC(=O)[C@H](CCCNC(=N)N)NC(=O)[C@H](Cc1ccc(O)cc1)NC(=O)[C@H](CCCCN)NC(=O)[C@H](CC(N)=O)NC3=O)C(=O)NCC(=O)N[C@@H](CCC(=O)O)C(=O)N[C@@H]([C@@H](C)O)C(=O)N2", "note": "[KALATA B8] (cyclo(CGETCLLGTCYTTGCTCNKYRVCTKDGSVLN); disulfide 1-15, 5-17, 10-23)", "values": [{"measurement": "IC50", "setting": "[3]", "value": 3.5, "unit": "µM"}, {"measurement": "EC50", "setting": "[4]", "value": 2.5, "unit": "µM"}]}
{"smiles": "CC[C@H](C)[C@@H]1NC(=O)[C@H](C)NC(=O)[C@H](C)NC(=O)[C@H](CO)NC(=O)[C@H]([C@@H](C)CC)NC(=O)[C@@H]2CSSC[C@@H]3NC(=O)[C@H](C(C)C)NC(=O)[C@H](CCCCN)NC(=O)[C@H](CO)NC(=O)[C@H](CCCCN)NC(=O)[C@@H]4CSSC[C@H](NC(=O)[C@H](CO)NC(=O)[C@H](CCC(=O)O)NC(=O)CNC(=O)[C@H](CSSC[C@H](NC(=O)CNC1=O)C(=O)N[C@@H](CO)C(=O)N4)NC(=O)[C@@H]1CCCN1C(=O)[C@H]([C@@H](C)CC)NC(=O)CNC(=O)[C@H](CC(N)=O)NC(=O)[C@H](CCCNC(=N)N)NC(=O)[C@H](Cc1ccc(O)cc1)NC3=O)C(=O)N[C@@H](C(C)C)C(=O)N[C@@H](Cc1c[nH]c3ccccc13)C(=O)N[C@@H]([C@@H](C)CC)C(=O)N1CCC[C@H]1C(=O)N2", "note": "[CYCLOVIOLACIN O13] (cyclo(AAIGCSCKSKVCYRNGIPCGESCVWIPCIS); disulfide 5-19, 7-23, 12-28)", "values": [{"measurement": "IC50", "setting": "[5]", "value": 11, "unit": "µM"}]}
{"smiles": "CC(C)C[C@@H]1NC(=O)CNC(=O)[C@H](CC(N)=O)NC(=O)[C@H](Cc2cnc[nH]2)NC(=O)[C@H]([C@@H](C)O)NC(=O)[C@@H]2CSSC[C@@H]3NC(=O)[C@H]([C@@H](C)O)NC(=O)CNC(=O)CNC(=O)[C@H](Cc4ccccc4)NC(=O)[C@@H]4CSSC[C@H](NC(=O)[C@H]([C@@H](C)O)NC(=O)[C@H](CSSC[C@H](NC(=O)[C@H]([C@@H](C)O)NC(=O)[C@@H]5CCCN5C1=O)C(=O)NCC(=O)N[C@@H](CCC(=O)O)C(=O)N[C@@H]([C@@H](C)O)C(=O)N4)NC(=O)CNC(=O)[C@@H]1CCCN1C(=O)[C@H]([C@@H](C)O)NC(=O)[C@H](CC(N)=O)NC3=O)C(=O)N[C@@H](CC(=O)O)C(=O)N1CCC[C@H]1C(=O)N[C@@H](Cc1c[nH]c3ccccc13)C(=O)N1CCC[C@H]1C(=O)N[C@@H](C(C)C)C(=O)N2", "note": "[CYCLOVIOLACIN O24] (cyclo(CDPWPVCTHNGLPTCGETCFGGTCNTPGCT); disulfide 1-19, 7-24, 15-29)", "values": [{"measurement": "Activity", "setting": "[6]", "value": 25, "unit": "µM"}]}
